Measured values taken from patent US20090240046A1, “CARBOXYLATED GLUCOSAMINE COMPOUNDS FOR INHIBITING THE ACTIVATION AND EXPRESSION OF MATRIX METALLOPROTEINASE-9 IN HUMAN FIBROSARCOMA CELLS AND MATRIX METALLOPROTEINASE-9 INHIBITORS CONTAINING THE SAME” (priority 2006, published 2009).

Columns and labels:
Type in all cases: cell-based, human
MMP-9 [1] = test: Gelatin zymography of MMP-9 gelatinolytic activity in conditioned medium of PMA-stimulated HT1080 cells; details: 500 μg/mL CGlc, HT1080 cells stimulated with PMA 10 ng/mL
Description: MMP-9 activity in HT1080 cells was assayed by gelatin zymography as described previously. For this, approximately 2×10^5 cells/mL HT1080 cells in serum free DMEM medium were seeded in 24-well plates and pre-treated with different concentrations of CGlc for 1 h. MMP-9 expression was stimulated by treatment of PMA (10 ng/mL) and cells were cultured for 48 h. Cell conditioned medium was subjected to substrate gel electrophoresis. Similar amount of protein containing conditioned media were applied without reduction to a 10% (w/v) polyacrylamide gel impregnated with 1 mg/mL gelatin. After electrophoresis, gel was washed in 50 mM Tris-HCl (pH 7.5) containing 2.5% Triton X-100 at room temperature and incubated overnight at 37° C. in zymography developing buffer containing 10 mM CaCI2, 50 mM Tris-HCl, and 150 mM NaCl. The gel was then stained with a […]. In this assay clear zones against the blue background indicate the presence of gelatinolytic activity.
The image of the gel was recorded using Fujifilm Image Reader LAS-3000 software in Science Image System, LAS 3000 (Fujifilm Life Science, Tokyo, Japan). The gelatinolytic activities were quantified using Multi Gauge V3.0 software.
To analyze the inhibition of MMP-9 mediated gelatinolytic activity in conditioned medium stimulated with PMA, we utilized human fibrosarcoma cell line, HT1080. […]

HT1080 cells = test: MTT cell viability (cytotoxicity) assay; details: even at 1 mg/mL, 24 h, in the presence and absence of FBS
Description: Equal number of HT1080 cells (4000 cells per well) cultured in 96-well plates with serum and serum free media were treated with various concentrations of CGlc for 24 h. Cell viability was then evaluated with the 3-(4,5-dimethyl[…])-2,5-diphenyltetrazolium bromide (MTT) spectrophotometrically (GENios® microplate reader, Tecan Austria GmbH, Austria) which measures conversion of tetrazolium salt in to blue formazan by viable cells.

MMP-9 [2] = test: Fluorescence conjugated gelatin digestion assay on conditioned medium of PMA-stimulated HT1080 cells
Description: HT1080 cells grown in 24-well plates were treated with different concentrations of CGlc and conditioned media were collected by centrifugation at 13 000×g following PMA (10 ng/mL) treatment. Enzyme activities of conditioned media in 50 mmol/l Tris-HCl buffer (pH 7.5), 0.15 mol/l NaCl, 10 mmol/l CaCl2, 0.02% NaN3 (TNC buffer) containing 0.05% Brij 35 were determined using fluorescence conjugated gelatin peptide (Collagen Technology Corporation, Tokyo, Japan) as the substrate.
Fluoropeptides were incubated with conditioned media at 37° C. for 20 h, and the reaction was terminated by addition of 3% acetic acid. Fluorescence intensity was measured at 495 nm (excitation) and 520 nm (emission) with a GENios® fluorescence microplate reader (Tecan Austria GmbH, Austria).
The MMP-9 inhibitory effect of CGlC on MMP-9 activity stimulated by PMA in HT1080 cells was further confirmed using more sensitive fluorescence conjugated gelatin digestion assay which use fluorescence conjugated gelatin peptides as the substrate for MMP-9. The amount of active gelatinases (MMP-9/-2) present in CGIc treated stimulated conditioned medium obtained from incubation of HT1080 cells was assesssed from the resulting fluorescence activity. […] Therefore it can be presumed that difference in fluorescence intensities were mainly due to activity of MMP-9. […]

MMP-9 promoter = MMP-9 promoter luciferase reporter assay in transfected HT1080 cells; details: PMA-stimulated transfected HT1080 cells
Description: (§1) HT1080 cells cultured in 10 cm culture dishes were transiently transfected with MMP-9 promoter containing pGL3 luciferase reporter vector (Promega, Madison, Wis.) or AP-1 binding site containing luciferase reporter plasmid (Colontech, Palo Alto, […]) by Lipofectamine™ 2000™ reagent (Invitrogen). Beta-galactosidase expression vector co-transfected with the reporter vector to serve as an internal control of transfection efficiency. Transfected cells sub-cultured in 24-well plates were treated with different concentrations of CGlc. Following stimulation with PMA cells were cultured for 24 h. Cells were washed once with cold PBS and lysed with 200 μl/well lysis buffer (25 mM Tri-HCl, pH 8.0, containing 2 mM DDT and 1% Triton-X 100). Aliquots of cell lysate and luciferase substrate (Promega) were mixed in equal amounts in a 96-well plate and luminescence intensity was measured with a luminescence microplate reader (Tecan Austria GmbH, Austria). Beta-galactosidase activity was measured with ONPG buffer. The level of reporter gene expression was determined as a ratio, compared with cells stimulated by PMA (10 ng/mL) alone and represented as relative luciferase activity.
(§2) Transfection efficiency was determined by X-Gal staining method. Briefly, transfected cells were fixed with 0.5% glutaraldehyde and stained with X-Gal solution containing 20 mM K3Fe(CN)6, K4Fe(CN)6 and 1 mM MgCl2. […]

AP-1 = AP-1 binding site luciferase reporter assay in transfected HT1080 cells; details: 500 μg/mL CGlc, PMA-stimulated transfected HT1080 cells
Description: as §1, §2

Carboxylated glucosamine [CGlc]
inhibition of MMP-9 lead gelatinolytic activity (MMP-9 [1]): approximately 60%
toxicity on HT1080 cells (MTT viability) (HT1080 cells): did not show any toxicity
reduction of fluorescence intensity (MMP-9 [2]; 100 μg/mL CGlc): about 50%
decrease of relative fluorescence activity (MMP-9 [2]; 500 μg/mL CGlc): up to 66%
inhibition of MMP-9-luciferase reporter gene activity (MMP-9 promoter; 100 μg/mL CGlc): Approximately 50%
inhibition of MMP-9-luciferase reporter gene activity (MMP-9 promoter; 500 μg/mL CGlc): approximately 3 fold
suppression of AP-1 reporter activity (AP-1): 2-3 fold
